Assay [1] deals with T1, astrocyte specific glutamate transporter, SLC1A2 (Rattus norvegicus, UniProt P31596).
T1 construct: In vitro intracellular recordings were obtained from pyramidal neurons (layer 2-3) 23-28 h following the in vivo treatment; from tissue; host or cells: acute rat neocortical slices (astrocytic transporter; recordings from layer 2-3 pyramidal neurons)
As to the kind of experiment: Whole cell patch recording of NMDA-mediated EPSCs in cortical pyramidal neurons. It is filed as cell-based. The settings on record: DHK 100 μM. How it is done:
In vitro intracellular recordings were obtained from pyramidal neurons (layer 2-3) 23-28 h following the in vivo treatment with albumin or from control rats. Currents were recorded using the whole cell patch configuration, as described previously (Pavlovsky et al., 2003). In brief, glass pipettes were pulled from capillaries using a vertical puller (Narashige, Greenvale, N.Y.) and filled with a solution comprising (in mM): 150 CsCl, 1 MgCl2, 10 HEPES, 4 Na2ATP, 0.1 CaCl2, and 1.1 mM EGTA, pH adjusted to 7.2 with a final osmolarity of 290-310 mOsm. Cells were visualized using infrared differential interference phase contrast video-microscopy. Recordings were performed using AxoPatch 700B (Axon Instruments, Foster City, Calif.), digitized at 10 kHz and recorded using pClamp 9.2 (Axon Instruments, Foster City, Calif.). Patch pipette's resistance was 4-5 MΩ. Series resistance was not electronically compensated; however, cells in which series resistance varied by more than 25% were excluded from the analysis. Stimulation protocols were started at least 5 min following impalement to allow intracellular dialysis with the pipette solution. Excitatory post-synaptic currents (EPSCs) were evoked—using a bipolar stimulating electrode positioned <200 μm from the recorded cell—at 75% of the intensity producing maximal EPSCs. N-methyl-D-aspartic acid (NMDA) currents were recorded in the presence of blockers of α-amino-3-hydroxy-5-methyl-4-isoxazole-propionic acid (AMPA)/kainate (i.e., 30 μM CNQX) and of gamma-aminobutyric acid A (GABAA) receptors (i.e., 10 μM bicuculine methiodide). Cells were voltage clamped to +40 mV to alleviate NMDA receptor blockade and inactivate fast Na^+ currents. In some experiments, dihydrokainic acid (DHK, Tocris, Bristol, UK), 100 μM, was added to the extracellular solution to selectively block the astrocyte specific glutamate transporter, SLC1A2 (see Arriza et al., 1994).
To confirm that the transcriptional changes induced by albumin were associated with altered cellular functions, the clearance of extracellular glutamate and potassium in cortical slices 24 hours following albumin treatment in vivo was investigated. To measure synaptic glutamate levels during neuronal activation, the slowly inactivating (Lester et al., 1990) NMDA currents in cortical neurons were recorded by using the whole-cell patch configuration (in the presence of non-NMDA glutamate and GABA receptor blockers, see Methods). Cells were clamped at +40 mV to prevent a potential confounding effect of post-synaptic depolarization due to the accumulation of synaptic [K^+]o. […] Synaptic glutamate elicited by 50 extracellular stimulations at 2, 5, 10, 20, 50 and 100 Hz before and after adding the astrocytic SLC1A2 specific inhibitor, DHK was measured. In neurons from control animals, DHK had no effect on single EPSCs or EPSCs elicited at low stimulation frequencies (<20 Hz). […] The same experiments were then repeated 24 h following cortical application of albumin (i.e. during epileptogenesis). In contrast to the control experiments, DHK had no effect on EPSC amplitude in treated slices (FIG. 13b-c, right), supporting reduced expression of the astrocytic transporter SLC1A2.

Assay [2] has as its system albumin-induced epileptogenesis. Description: EEG recording from awake rats during albumin-induced epileptogenesis. It is filed as in vivo, rat.
Another assay deals with neocortical slices. Description: Field potential recordings of epileptiform activity in neocortical slices. In kind it is cell-based, rat. How it is done: Brain slices for the in vitro experiments were prepared by means of standard techniques (Ivens et al., 2007; Pavlovsky et al., 2003; Seiffert et al., 2004). Slices were transferred to a recording chamber where they were incubated in aCSF containing BSA (6.7 mg/ml), TGF-β1 (10 ng/ml) or artificial serum (aSerum, composition based on aCSF with the following changes, composition in mM: 0.8 MgSO4, 1.3 CaCl2, 5.7 KCl, 1 L-glutamine, 0.1 albumin). To block the activity of TGF-β1, slices were incubated in aCSF containing SB431542 (10 μM) before the addition of TGF-β1 (10 ng/ml). To block TGF-βRs, slices were incubated in aCSF containing SB431542 (10 μM) and TGF-βRII antibody (10 μg/ml) for 30 min followed by incubation in BSA in the presence of TGF-βR blockers. For detection of epileptiform activity, field potentials were recorded >4 h following incubation in cortical layer IV using extracellular glass microelectrodes (˜3 MΩ) in response to bipolar stimulation at the border of white and grey matter.
To assess the hypothesis that activation of the TGF-β signaling pathway is the mechanism underlying albumin-induced epileptogenesis, we activated this pathway directly by incubating neocortical slices with TGF-β1 (10 ng/mL) in artificial cerebrospinal fluid (aCSF) and performed electrophysiological recordings. These recordings were compared to those of slices treated with a solution containing serum levels of electrolytes and 0.1 mM albumin (aSERUM, previously shown to induce epileptogenesis; Ivens et al., 2007), albumin in aCSF, or aCSF (control). […] When albumin was added to the control aCSF solution, epileptiform activity was recorded in response to stimulation of the white matter (n=8 out of 12 slices, 6 animals). Importantly. TGF-β1 treatment was sufficient to recapitulate epileptiform activity similar to that seen following treatment with aSERUM and albumin in aCSF (n=5 out of 5 slices, 4 animals; n=7 out of 9 slices, 3 animals; and n=8 out of 12 slices, 6 animals, respectively). In all three cases, the evoked epileptiform activity, was all-or-none in nature, paroxysmal and prolonged, similar to that seen following BBB opening with bile salts (Ivens et al., 2007; Seiffert et al., 2004) and typical to that observed in acute models of epilepsy (Gutnick et al., 1982).
To further confirm that the TGF-β1 induced epileptiform activity was dependent on the TGF-βR mediated pathway, we performed additional trials of the above experiments in the presence of two TGF-βR blockers (SB431542, the TGF-βRI kinase activity inhibitor and TGF-βRII antibody).

3 compounds from US10668049B2, “Methods of treating cognitive decline with transforming growth factor beta inhibitors” (The Regents of the University of California, priority 2008, dated 2020) can be followed below.

T1 sequence (P31596 whole entry): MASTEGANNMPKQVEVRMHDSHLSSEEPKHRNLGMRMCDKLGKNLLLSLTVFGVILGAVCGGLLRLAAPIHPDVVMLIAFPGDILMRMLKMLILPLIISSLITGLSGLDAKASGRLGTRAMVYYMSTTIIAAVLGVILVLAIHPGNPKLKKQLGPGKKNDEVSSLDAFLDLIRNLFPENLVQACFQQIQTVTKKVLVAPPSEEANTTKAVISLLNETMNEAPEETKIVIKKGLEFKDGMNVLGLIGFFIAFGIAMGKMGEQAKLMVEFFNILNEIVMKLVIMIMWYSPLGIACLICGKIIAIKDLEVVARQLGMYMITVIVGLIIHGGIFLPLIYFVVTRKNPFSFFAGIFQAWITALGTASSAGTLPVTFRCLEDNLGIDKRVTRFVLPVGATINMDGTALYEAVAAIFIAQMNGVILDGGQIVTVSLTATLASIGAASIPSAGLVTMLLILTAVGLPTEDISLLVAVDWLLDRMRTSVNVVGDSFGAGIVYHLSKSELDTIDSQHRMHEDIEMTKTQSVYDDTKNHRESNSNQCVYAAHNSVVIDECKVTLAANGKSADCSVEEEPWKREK

In the case of `CC(C)[C@H]1CN[C@H](C(=O)O)[C@H]1CC(=O)O` [DHK, dihydrokainic acid, reference compound], in assay [1] (neurons from control animals), the “effect on NMDA currents at stimulation frequencies >20 Hz” value is “increased NMDA currents” and the “effect on single EPSCs or EPSCs elicited at low stimulation frequencies (<20 Hz)” value is on record as “no effect”. Further, the “effect on EPSC amplitude” value in assay [1] (slices 24 h following cortical application of albumin) is listed as “no effect”.
`CCCCc1nc(Cl)c(CO)n1Cc1ccc(-c2ccccc2-c2nnn[nH]2)cc1.[K]` [Losartan, 2-butyl-4-chloro-1-[p-(o-1H-tetrazol-5-ylphenyl)benzyl]imidazole-5-methanol, monopotassium salt, reference compound]: the “number of seizure like events (SLEs)” value in assay [2] (losartan-treated rats (n=7) compared to BSA-treated ones (n=8)) was “significantly smaller”. For the same compound, in assay [2] (single, focal application together with BSA, 10 μM), the “albumin-induced EEG changes (signal harmony, complexity) during epileptogenesis” value is “reversed the albumin-induced EEG changes”.
Consider “TGF-β1: TGF-β1 (10 ng/ml, Peprotech), used to activate the TGF-β pathway”, for which the “integral of the field potential” value in the assay with neocortical slices (inducer alone, without TGF-βR blockers) is recorded as 84.1±20.1 mV*ms. Also, the “evoked epileptiform activity in response to stimulation of the white matter, slices showing it” value with neocortical slices (slices incubated with the inducer) was 5 out of 5.
